Patent US20140134169A1, “Methods of Treating Ovarian Cancer with Dll4 Antagonists” (Regeneron Pharmaceuticals, Inc., priority 2012, published 2014)

Tests used:
[1] = tested on: human HCT116 tumor cells (CRC); experiment: Growth of human HCT116 tumors in humanized Dll4 SCID mice (5-FU study); assay type: in vivo
Description: Each mouse was implanted subcutaneously (sc) with 5×10^6 human HCT116 tumor cells (CRC). […] The mice were then treated with hFc, REGN421, 5-FU or combination of REGN421 and 5-FU. A total of 30 mice were divided into 6 groups (n=5 per cohort). The first group was treated sc with hFc at 2 mg/kg; the second group was treated sc with REGN421 at 2 mg/kg; the third and fourth groups were treated ip with 5-FU at 15 and 25 mg/kg, respectively; the fifth group was treated sc with REGN421 at 2 mg/kg and ip with 5-FU at 15 mg/kg; and the sixth group was treated sc with REGN421 at 2 mg/kg and ip with 5-FU at 25 mg/kg. REGN421 was administered every 3-4 days starting on day 22 and mice received three doses total. 5-FU was administered every 3-4 days starting on day 22 and mice received three doses total.
(§1) To assess the effects of REGN421 and 5-FU as single agents or in combination, the changes in tumor size (volume) were measured, beginning three days before the initial REGN421 treatment, and then on the day of each agent treatment (days 22, 26, 29) and thereafter every 3-4 days until tumors reach ˜600 mm^3 in size. In vivo tumor size is calculated using the formula (length×width^2)/2 (FIG. 3 and Table 5).

[2] = tested on: human A549 tumor cells (non-small cell lung cancer); experiment: Growth of human A549 tumors implanted in humanized Dll4 SCID mice; assay type: in vivo
Description: (§2) Tumor growth delay, TGD, was assessed as the difference in days between treated (T) versus control (C) tumors when each cohort reached a specified tumor size. The predetermined tumor size for this experiment was 600 mm^3.
Each mouse was implanted subcutaneously (sc) with 5×10^6 human A549 tumor cells (non-small cell lung cancer or “NSCLC”). […] A total of 36 mice were divided into 6 groups (n=6 per cohort). The first group was treated sc with hFc at 2 mg/kg; the second group was treated sc with REGN421 at 2 mg/kg; the third and fourth groups were treated ip with cisplatin at 2.5 and 4.5 mg/kg, respectively; the fifth group was treated sc with REGN421 at 2 mg/kg and ip with cisplatin at 2.5 mg/kg; and the sixth group was treated sc with REGN421 at 2 mg/kg and ip with cisplatin at 4.5 mg/kg. REGN421 was administered every 3-4 days starting on day 29 and mice received three doses total. Cisplatin was administered every 24 hours starting on day 29 and mice received two doses total.
To assess the effects of REGN421 and cisplatin as single agents or in combination we measured tumor size (volume), beginning three days before the initial REGN421 treatment, on the day of each agent treatment (days 29, 30, 33, 36) and thereafter every 3-4 days until tumors reached ˜600 mm^3 in size.

[3] = tested on: human VM-Cub1 tumor cells (bladder carcinoma cells); experiment: Growth of human VM-Cub1 tumors implanted in humanized Dll4 SCID mice; assay type: in vivo; conditions: for TGI(%): day 32; for TGD: to 600 mm3
Description: The humanized Dll4 SCID mouse was made by replacing the entire extracellular domain of the mouse Dll4 gene with the corresponding extracellular region of the human Dll4 gene (7 kb) in embryonic stem (ES) cells. Homozygous hDll4 mice were generated and bred into SCID background.
A total of 45 mice were divided into nine groups (n=5 per cohort). The first group was treated subcutaneously (sc) with hFc at 2 mg/kg; the second and third groups were treated sc with REGN421 at 0.5 and 2 mg/kg, respectively; the fourth and fifth groups were treated intraperitoneally (ip) with cisplatin at 0.5 and 2 mg/kg, respectively; the sixth group was treated sc with REGN421 at 0.5 mg/kg and ip with cisplatin at 0.5 mg/kg; the seventh group was treated sc with REGN421 at 0.5 mg/kg and ip with cisplatin at 2 mg/kg; the eighth group was treated sc with REGN421 at 2 mg/kg and ip with cisplatin at 0.5 mg/kg; and the ninth group was treated sc with REGN421 at 2 mg/kg and ip with cisplatin at 2 mg/kg. REGN421 was administered every 3-4 days starting on day 14 and mice received three doses total. Cisplatin was administered every 24 hours starting on day 14; mice received four doses total.
To assess the effects of REGN421 and cisplatin as single agents or in combination treatments, the changes in tumor size were recorded. Tumor growth was measured three days before the initial REGN421 treatment, on the day of each REGN421 treatment (days 14, 17 and 21) and thereafter every 3-4 days until tumors reached ˜600 mm3 in size. In vivo tumor size was calculated using the formula (length×width2)/2 (FIG. 1 and Table 1).
Tumor Growth Inhibition, TGI, was determined by calculating the difference in tumor size for treated (T) versus vehicle control (C) tumor at the day the control cohort was euthanized (i.e., at day 32); TGI=[1−(Tfinal−Tinitial)/(Cfinal−Cinitial)]×100.
as §2

[4] = tested on: human MDA-MB-231 breast tumor cells; experiment: Growth of human MDA-MB-231 breast tumors implanted in SCID mice
Description: The effect of anti-Dll4 antibody in combination with docetaxel (TAXOTERE®, sanofi-aventis) on tumor growth was evaluated on tumors implanted in Severe Combined Immunodeficiency (SCID) mice. […] After the tumors were established in the mice (tumor size of ˜150-200 mm^3, approximately 45 days after implantation), mice were treated with hFc, docetaxel, Dll4 antibody, or a combination of docetaxel plus Dll4 antibody. A total of 25 tumor-bearing male mice were randomized into five groups (N=5 mice per group). […] Docetaxel and/or Dll4 antibody were administered on the same day. Animals were treated 2 times per week and received a total of 3 doses. Starting from the day of initial treatment, body weight and tumors were measured twice a week until the mice are euthanized. Mice were euthanized when tumors reached ˜600 mm^3 in size. Tumor size was calculated using the formula (length×width^2)/2.
The control tumors reached ˜600 mm^3 and were harvested on day 63.

[5] = tested on: rat C6 tumor cells (glioblastoma cells); experiment: Growth of rat C6 tumors implanted in SCID mice; assay type: in vivo
Description: Each mouse was implanted subcutaneously (sc) with 1×10^6 rat C6 tumor cells (glioblastoma cells). […] Since these mice expressed mouse Dll4, the Dll4 Ab used in this experiment was prepared in-house, based on the published sequence (WO 2007/143689), and designated as REGN577. […] A total of 30 tumor-bearing male mice were randomized into six groups (N=5). […] Tumor size was calculated using the formula, (length×width2)/2.
TGI and TGD were determined (Table 3).

[6] = tested on: human HCT116 tumor cells; experiment: Growth of human HCT116 tumors in humanized Dll4 SCID mice (irinotecan study); assay type: in vivo
Description: Each mouse was implanted subcutaneously (sc) with 5×10^6 human HCT116 tumor cells. […] The mice were then treated with hFc, REGN421, irinotecan or combination of REGN421 and irinotecan. A total of 30 mice were divided into 6 groups (n=5 per cohort). The first group was treated sc with hFc at 2 mg/kg; the second group was treated sc with REGN421 at 2 mg/kg; the third and fourth groups were treated ip with irinotecan at 7.5 and 25 mg/kg, respectively; the fifth group was treated sc with REGN421 at 2 mg/kg and ip with irinotecan at 7.5 mg/kg; and the sixth group was treated sc with REGN421 at 2 mg/kg and ip with irinotecan at 25 mg/kg. REGN421 was administered every 3-4 days starting on day 15 and mice received three doses total. Irinotecan was administered every 3-4 days starting on day 15 and mice received three doses total.
as §1, with “irinotecan” for “5-FU”, “combination treatments,” for “combination,”, “are” for “were”, “starting” for “beginning”, “15, 19, 22)” for “22, 26, 29)”, “(length×width^2)/2.” for “(length×width^2)/2 (FIG. 3 and Table 5).”

[7] = tested on: A2780 cells; experiment: A2780 ovarian xenograft (intraperitoneal) tumor growth inhibition; assay type: in vivo, human; conditions: SCID mice (native murine Dll4); REGN421 2.5 mg/kg 1x/week, mDll4Ab1 5 mg/kg 1x/week, VEGF-Trap 10 mg/kg 2x/week
Description: Ovarian tumor xenograft cells were implanted into humanized Dll4 SCID mice or vendor SCID mice (i.e., SCID mice expressing native murine Dll4). After implantation, mice were treated with REGN421 (anti-human Dll4 antibody, binds to human Dll4), mDll4Ab1 (anti-murine Dll4 antibody, binds to murine Dll4), or a human Fc domain control protein. In one study, mice were treated with VEGF-Trap, mDll4Ab1 or VEGF-Trap plus mDll4Ab1. TOV-112D cells (5×10^6) were implanted subcutaneously into the right flank of humanized Dll4 (n=4) or vendor SCID mice (n=7). Treatment with REGN421 (2.5 mg/kg, 1×/week) or mDll4Ab1 (5 mg/kg, 1×/week) vs. hFc control was initiated one week after tumor cell implantation. Animals were treated for 2 to 3 weeks. A2780 cells (2×10^6) were implanted intraperitoneally into humanized Dll4 or vendor SCID mice (n=4-5). Treatment with REGN421 (2.5 mg/kg, 1×/week) or mDll4Ab1 (5 mg/kg, 1×/week) vs. hFc control was initiated one week after tumor cell implantation. For the A2780 combination study, simultaneous treatment with mDll4Ab1 (5 mg/kg, 1×/week) and VEGF-Trap (10 mg/kg, 2×/week) was initiated one week after tumor cell implantation. A VEGF-Trap single treatment arm was included in this study. Animals bearing A2780 tumors were treated for 4-5 weeks. SKOV-3 cells (5×10^6) in matrigel were implanted subcutaneously and tumor-bearing animals (n=10) were dosed with REGN421 (2.5 mg/kg) and mDll4Ab1 (5 mg/kg) once weekly. OVCAR-3 cells (1×10^7) were implanted subcutaneously into the right flank of vendor SCID mice (n=7). Treatment with mDll4Ab1 (5 mg/kg 1×/week) vs. hFc control was initiated 66 days after tumor cell implantation. Animals were treated for a total of 5 weeks. Tumor growth inhibition (TGI) was measured as detailed above.

[8] = 5-FU 15 mg/kg ip (45 mg/kg total)
[9] = 5-FU 25 mg/kg ip (75 mg/kg total)
[10] = cisplatin 2.5 mg/kg ip (5 mg/kg total)
[11] = cisplatin 4.5 mg/kg ip (9 mg/kg total)
[12] = docetaxel 4.5 mg/kg iv (13.5 mg/kg total)
[13] = docetaxel 6 mg/kg iv (18 mg/kg total)
[14] = irinotecan 7.5 mg/kg ip (22.5 mg/kg total)
[15] = irinotecan 25 mg/kg ip (75 mg/kg total)

For `O=c1[nH]cc(F)c(=O)[nH]1` [5-FU, 5-fluorouracil], the “TGD” value [1, 8] was 4 days, the “TGI(%) at Day 39” value [1, 8] was 5.6% and the “TGD” value [1, 9] was 2 days. For the same compound, the “TGI(%) at Day 39” value [1, 9] was 0%.

With `N.N.[Cl][Pt][Cl]` [Cisplatin, cis-diamminedichloroplatinum] the “TGD” value [2, 10] was 4 days, the “TGI (%) at Day 57” value [2, 10] was 35% and the “TGD” value [2, 11] was 11 days. For the same compound, the “TGI (%) at Day 57” value [2, 11] was 22%, the “Euthanized” value ([3]; cisplatin 0.5 mg/kg/dose ip x4) was 45 days and the “TGI(%)” value ([3]; cisplatin 0.5 mg/kg/dose ip x4) was 60.7%. For the same compound, the “TGI(%)” value ([3]; cisplatin 0.5 mg/kg/dose ip x4, listed as cisplatin) was 61%, the “TGD” value ([3]; cisplatin 0.5 mg/kg/dose ip x4) was 13 days and the “Euthanized” value ([3]; cisplatin 2 mg/kg/dose ip x4) was 41 days. For the same compound, the “TGI(%)” value ([3]; cisplatin 2 mg/kg/dose ip x4) was 53.8%, the “TGI(%)” value ([3]; cisplatin 2 mg/kg/dose ip x4, listed as cisplatin) was 54% and the “TGD” value ([3]; cisplatin 2 mg/kg/dose ip x4) was 9 days.

For `CC(=O)O[C@@]12CO[C@@H]1C[C@H](O)[C@@]1(C)C(=O)[C@H](O)C3=C(C)[C@@H](OC(=O)[C@H](O)[C@@H](NC(=O)OC(C)(C)C)c4ccccc4)C[C@@](O)([C@@H](OC(=O)c4ccccc4)[C@H]21)C3(C)C` [Docetaxel, docetaxel], the “TGD” value [4, 12] was 4 days, the “TGI(%) at Day 25” value [4, 12] was 37% and the “TGD” value [4, 13] was 4 days. The “TGI(%) at Day 25” value [4, 13] was 52%, the “TGD” value [5, 12] was 6 days and the “TGI(%) at Day 25” value [5, 12] was 62%. For the same compound, the “TGD” value [5, 13] was 7 days and the “TGI(%) at Day 25” value [5, 13] was 70%.

In the case of `CCc1c2c(nc3ccc(OC(=O)N4CCC(N5CCCCC5)CC4)cc13)-c1cc3c(c(=O)n1C2)COC(=O)[C@]3(O)CC` [Irinotecan, irinotecan], the “TGD” value [6, 14] is reported as 8 days, the “TGI(%) at Day 39” value [6, 14] is reported as 71.2% and the “TGD” value [6, 15] is reported as 16 days. The “TGI(%) at Day 39” value [6, 15] was 100.5%.

With “VEGF-Trap: VEGF receptor-based chimeric molecule, SEQ ID NO:121 [reference compound]” the “% TGI” value [7] was 88%.
